Experimental data published in US8415469B2, “Compounds and methods for kinase modulation, and indications therefor” (Plexxikon Inc., priority 2005, dated 2013).

What was measured:
Type in all cases: biochemical
[1] = target: T1, Yes (Homo sapiens, UniProt P07947); test: Z'-Lyte FRET kinase assay (Invitrogen), Yes; conditions: read-out: IC50, activity toward kinase Yes
T1 construct: purchased Invitrogen (Carlsbad, Calif.), screening service
Source text: The effect of potential modulators of kinase activity can be measured in a variety of different assays known in the art. For example, direct radiometric, indirect FRET or AlphaScreen assays may be used to assess the level of phosphorylation of a substrate in the presence of test compounds in order to determine the inhibitory affect of the compound on the kinase. Invitrogen (Carlsbad, Calif.) uses a FRET based assay for Btk, EGFR, EphB2, Flt3, lrak4, Kdr, MAP2K1, MAPKAPK2, PDGFRB, PKC theta, Stk6 and Yes. For these assays, compounds of the invention were screened by Invitrogen using Z′-Lyte™ kinase assay.
Briefly, the Invitrogen kinase assay involves use of a specific peptide substrate optimized for each kinase, containing a fluorophore at each end that make up the FRET pair. The peptide sensitivity to proteolytic cleavage depends on phosphorylation of the peptide. Non-phosphorylated peptide is cleaved by a protease while peptide phosphorylated by the kinase is not cleaved. Cleavage of the peptide disrupts the FRET between the donor (coumarin) and acceptor (fluorescein) fluorophores, resulting in an increase in the ratio of donor emission to acceptor emission. The emission ratio of coumarin to fluorescein is used to assess the reaction progress. The extent of phosphorylation is determined from the emission ratio, which is low when the kinase is active (phosphorylated peptide is not cleaved, FRET pair connected) or higher for inhibited kinase (non-phosphorylated peptide is cleaved, FRET pair separated). Thus, the assay involves a kinase reaction in the presence of varying concentrations of a given compound, a development reaction with site specific protease, and detection of the fluorescent emission ratio of coumarin and fluorscein. […] Reaction conditions for each kinase are determined to provide optimal reaction times, incubation temperature, kinase and ATP concentrations. Test samples are made up in 1× kinase buffer (50 mM HEPES pH 7.5, 50 mM MgCl2, 5 mM EGTA, 0.05% BRIJ-35) and compound at desired concentration prepared in DMSO such that the final DMSO is 1%. […] Typically, assay plates are prepared to 10 μl final volume per sample, adding 2.5 μl of compound at 4× the desired concentration in 4% DMSO (serial dilution of compound provides concentration curve), 5 μl of the desired kinase mixed with Z′-LYTE™ peptide substrate (2× in 2× kinase buffer, final peptide at 2 μM), and 2.5 μl of 4×ATP solution. All kinase except for MAP2K1 were at 10 μM ATP in the kinase reaction, while MAP2K1 was at 100 μM. Samples are mixed and the kinase reaction is incubated 1 hour at room temperature, after which 5 μl of development solution is added and mixed. After incubation for another 1 hour at room temperature, 5 μl of stop reagent is added to each sample and mixed. The fluorescence signals are measured to determine the emission ratio.

[2] = target: T2, Kdr (Homo sapiens, UniProt P35968); test: Z'-Lyte FRET kinase assay (Invitrogen), Kdr; conditions: read-out: IC50, activity toward kinase Kdr
T2 construct: purchased Invitrogen (assay run by Invitrogen)
T2 sequence (P35968 20-1356): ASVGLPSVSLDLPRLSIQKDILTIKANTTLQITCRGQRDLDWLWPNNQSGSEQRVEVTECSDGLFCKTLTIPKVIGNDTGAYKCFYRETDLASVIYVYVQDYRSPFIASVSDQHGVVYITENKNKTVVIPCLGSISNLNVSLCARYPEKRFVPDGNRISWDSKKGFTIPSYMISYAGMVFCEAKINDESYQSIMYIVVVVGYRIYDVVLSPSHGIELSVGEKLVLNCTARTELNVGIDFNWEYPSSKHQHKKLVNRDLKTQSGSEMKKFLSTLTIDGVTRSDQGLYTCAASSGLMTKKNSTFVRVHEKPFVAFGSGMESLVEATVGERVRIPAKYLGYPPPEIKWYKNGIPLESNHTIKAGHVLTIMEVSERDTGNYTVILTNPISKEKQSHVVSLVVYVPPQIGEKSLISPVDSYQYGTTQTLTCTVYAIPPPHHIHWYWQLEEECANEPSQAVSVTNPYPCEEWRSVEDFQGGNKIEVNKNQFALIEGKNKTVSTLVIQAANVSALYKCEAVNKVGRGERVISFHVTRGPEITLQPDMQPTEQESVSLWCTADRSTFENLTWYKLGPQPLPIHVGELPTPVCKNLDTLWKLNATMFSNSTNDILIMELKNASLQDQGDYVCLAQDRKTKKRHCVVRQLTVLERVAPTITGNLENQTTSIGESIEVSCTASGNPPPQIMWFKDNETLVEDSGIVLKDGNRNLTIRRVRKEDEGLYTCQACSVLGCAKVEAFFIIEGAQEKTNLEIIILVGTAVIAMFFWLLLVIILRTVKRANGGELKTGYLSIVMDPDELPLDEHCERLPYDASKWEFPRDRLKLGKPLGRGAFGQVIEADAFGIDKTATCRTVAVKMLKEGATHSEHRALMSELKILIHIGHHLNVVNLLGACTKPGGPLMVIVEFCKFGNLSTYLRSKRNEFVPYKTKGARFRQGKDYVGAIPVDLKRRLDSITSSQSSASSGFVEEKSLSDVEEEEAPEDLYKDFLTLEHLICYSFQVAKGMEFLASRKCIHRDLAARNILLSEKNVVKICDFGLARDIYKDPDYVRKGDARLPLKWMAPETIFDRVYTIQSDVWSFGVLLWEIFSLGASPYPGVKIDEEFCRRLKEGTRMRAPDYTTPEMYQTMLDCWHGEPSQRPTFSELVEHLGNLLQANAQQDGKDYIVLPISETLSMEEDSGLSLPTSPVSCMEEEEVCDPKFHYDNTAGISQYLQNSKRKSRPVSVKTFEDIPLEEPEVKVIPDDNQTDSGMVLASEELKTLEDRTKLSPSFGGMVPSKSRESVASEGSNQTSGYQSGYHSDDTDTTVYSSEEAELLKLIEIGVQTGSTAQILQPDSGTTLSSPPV

[3] = target: T3, Fms (Homo sapiens, UniProt P07333); test: AlphaScreen kinase assay, Fms; conditions: read-out: IC50, activity toward kinase Fms
T3 construct: purchased Upstate Biotechnology
T3 sequence (P07333 20-972): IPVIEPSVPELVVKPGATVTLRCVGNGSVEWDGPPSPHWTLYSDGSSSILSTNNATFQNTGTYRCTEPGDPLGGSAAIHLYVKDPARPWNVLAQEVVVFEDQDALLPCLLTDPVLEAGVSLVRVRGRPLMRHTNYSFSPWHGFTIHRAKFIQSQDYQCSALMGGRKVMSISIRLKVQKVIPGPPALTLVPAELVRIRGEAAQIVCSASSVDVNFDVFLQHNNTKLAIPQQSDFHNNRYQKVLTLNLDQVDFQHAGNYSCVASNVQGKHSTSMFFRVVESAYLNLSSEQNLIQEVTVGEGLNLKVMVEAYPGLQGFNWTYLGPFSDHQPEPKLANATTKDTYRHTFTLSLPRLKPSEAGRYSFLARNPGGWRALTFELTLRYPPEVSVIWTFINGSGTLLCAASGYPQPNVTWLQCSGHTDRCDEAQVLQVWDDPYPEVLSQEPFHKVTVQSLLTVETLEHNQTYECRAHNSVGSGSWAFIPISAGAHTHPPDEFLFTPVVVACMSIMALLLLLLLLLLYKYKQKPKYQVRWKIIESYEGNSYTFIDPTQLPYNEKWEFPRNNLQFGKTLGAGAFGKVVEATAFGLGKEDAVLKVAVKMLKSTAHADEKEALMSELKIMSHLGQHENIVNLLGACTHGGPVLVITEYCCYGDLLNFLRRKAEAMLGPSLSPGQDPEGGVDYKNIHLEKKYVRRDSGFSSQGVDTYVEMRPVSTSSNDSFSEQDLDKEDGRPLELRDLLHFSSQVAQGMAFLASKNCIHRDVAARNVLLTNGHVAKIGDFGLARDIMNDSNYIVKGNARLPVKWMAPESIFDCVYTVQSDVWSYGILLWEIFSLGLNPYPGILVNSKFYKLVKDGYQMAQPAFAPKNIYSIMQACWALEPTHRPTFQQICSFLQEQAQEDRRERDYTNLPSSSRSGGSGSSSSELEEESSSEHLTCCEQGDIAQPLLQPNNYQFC

[4] = target: T4, B-Raf (Homo sapiens, UniProt P15056); test: AlphaScreen kinase assay, B-Raf; conditions: read-out: IC50, activity toward kinase B-Raf
T4 construct: purchased Upstate Biotechnology
T4 sequence (P15056 whole entry): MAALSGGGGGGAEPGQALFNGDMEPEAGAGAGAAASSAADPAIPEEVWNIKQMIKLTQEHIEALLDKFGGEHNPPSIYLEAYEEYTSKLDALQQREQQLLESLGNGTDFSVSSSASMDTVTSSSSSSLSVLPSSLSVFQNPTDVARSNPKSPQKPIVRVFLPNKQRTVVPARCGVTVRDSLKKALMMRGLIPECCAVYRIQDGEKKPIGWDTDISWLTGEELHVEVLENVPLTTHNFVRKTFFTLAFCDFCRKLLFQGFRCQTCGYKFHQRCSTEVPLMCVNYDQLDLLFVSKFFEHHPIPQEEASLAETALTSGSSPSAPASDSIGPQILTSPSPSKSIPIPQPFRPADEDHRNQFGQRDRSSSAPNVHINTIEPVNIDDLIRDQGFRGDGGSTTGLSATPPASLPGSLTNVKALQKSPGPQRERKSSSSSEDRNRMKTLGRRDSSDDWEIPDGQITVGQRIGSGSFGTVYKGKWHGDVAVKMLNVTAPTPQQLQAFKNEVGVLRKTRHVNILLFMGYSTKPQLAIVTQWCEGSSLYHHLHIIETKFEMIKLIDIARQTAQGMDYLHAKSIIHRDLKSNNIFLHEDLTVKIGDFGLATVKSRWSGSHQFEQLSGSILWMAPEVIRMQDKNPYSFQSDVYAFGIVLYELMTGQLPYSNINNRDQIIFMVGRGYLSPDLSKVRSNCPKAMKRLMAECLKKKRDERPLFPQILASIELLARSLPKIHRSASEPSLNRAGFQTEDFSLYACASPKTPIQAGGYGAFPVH

[5] = target: T5, Stk6 (Homo sapiens, UniProt O14965); test: Z'-Lyte FRET kinase assay (Invitrogen), Stk6; conditions: read-out: IC50, activity toward kinase Stk6
T5 construct: purchased Invitrogen (Carlsbad, Calif.), screening service
T5 sequence (O14965 1-403): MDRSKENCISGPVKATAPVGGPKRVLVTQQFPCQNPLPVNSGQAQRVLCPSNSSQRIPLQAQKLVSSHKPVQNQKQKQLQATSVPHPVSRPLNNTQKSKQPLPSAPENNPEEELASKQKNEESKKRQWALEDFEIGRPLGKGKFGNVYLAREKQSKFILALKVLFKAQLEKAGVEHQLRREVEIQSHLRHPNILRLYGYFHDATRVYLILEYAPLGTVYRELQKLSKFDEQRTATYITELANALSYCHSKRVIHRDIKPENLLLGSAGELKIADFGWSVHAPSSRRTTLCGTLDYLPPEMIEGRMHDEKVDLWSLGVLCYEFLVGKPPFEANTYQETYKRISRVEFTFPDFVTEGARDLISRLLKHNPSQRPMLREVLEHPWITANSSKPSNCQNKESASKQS

[6] = target: T6, Ret (Homo sapiens, UniProt P07949); test: AlphaScreen kinase assay, Ret; conditions: read-out: IC50, activity toward kinase Ret
T6 construct: P1378.pET-SF BI-PTP RET H661-R1012 HIS; made in house
T6 sequence (P07949 with tags, fused parts or gaps): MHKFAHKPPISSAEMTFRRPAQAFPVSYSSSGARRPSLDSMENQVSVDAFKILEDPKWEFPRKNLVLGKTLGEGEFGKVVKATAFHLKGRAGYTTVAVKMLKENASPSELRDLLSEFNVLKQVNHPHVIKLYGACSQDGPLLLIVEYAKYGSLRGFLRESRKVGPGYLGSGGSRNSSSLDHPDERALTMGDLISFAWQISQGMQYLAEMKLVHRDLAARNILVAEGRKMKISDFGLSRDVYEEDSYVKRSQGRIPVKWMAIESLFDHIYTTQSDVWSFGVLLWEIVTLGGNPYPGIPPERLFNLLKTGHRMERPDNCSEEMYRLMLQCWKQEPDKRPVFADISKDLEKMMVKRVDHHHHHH

[7] = target: T7, Src (Homo sapiens, UniProt P12931); test: AlphaScreen kinase assay, Src; conditions: read-out: IC50, activity toward kinase Src
T7 construct: P1144. pET-N6 BI-PTP SRC V86-L536-X; made in house
T7 sequence (P12931 with tags, fused parts or gaps): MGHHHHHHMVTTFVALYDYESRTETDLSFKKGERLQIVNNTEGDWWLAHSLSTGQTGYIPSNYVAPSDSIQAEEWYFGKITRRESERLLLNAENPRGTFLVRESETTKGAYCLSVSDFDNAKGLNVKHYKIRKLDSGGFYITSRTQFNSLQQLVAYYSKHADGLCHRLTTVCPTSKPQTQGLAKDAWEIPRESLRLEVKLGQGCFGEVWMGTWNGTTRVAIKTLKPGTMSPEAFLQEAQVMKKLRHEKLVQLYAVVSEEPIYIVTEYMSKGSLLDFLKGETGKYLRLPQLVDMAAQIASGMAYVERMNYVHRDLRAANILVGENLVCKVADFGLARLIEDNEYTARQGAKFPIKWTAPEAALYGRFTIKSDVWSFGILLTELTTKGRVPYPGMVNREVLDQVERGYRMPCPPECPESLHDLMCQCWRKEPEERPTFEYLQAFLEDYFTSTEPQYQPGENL

[8] = target: T8, B-Raf V600E (Homo sapiens, UniProt P15056, V600E); test: AlphaScreen kinase assay, B-Raf V600E; conditions: read-out: IC50, activity toward kinase B-Raf V600E
T8 construct: P4254. pFastBacBD-CDC37 BRAF D437-K722-X, V600E; His6 with pFastBac HT leader (TEV site) (N); made in house; host or cells: Sf9 (baculovirus; chaperone CDC37 co-expressed)
T8 sequence (P15056 with tags, fused parts or gaps V600E): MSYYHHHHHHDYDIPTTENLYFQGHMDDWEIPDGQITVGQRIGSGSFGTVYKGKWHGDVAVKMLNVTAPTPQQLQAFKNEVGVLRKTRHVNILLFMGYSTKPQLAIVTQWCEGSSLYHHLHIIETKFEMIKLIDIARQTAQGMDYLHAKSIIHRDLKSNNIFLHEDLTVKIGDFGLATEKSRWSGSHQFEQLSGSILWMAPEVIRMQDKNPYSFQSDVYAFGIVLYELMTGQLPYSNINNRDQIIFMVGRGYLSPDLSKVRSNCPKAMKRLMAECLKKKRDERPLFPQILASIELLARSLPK

[9] = target: T9, Pyk2 (Homo sapiens, UniProt Q14289); test: AlphaScreen kinase assay, Pyk2; conditions: read-out: IC50, activity toward kinase Pyk2
T9 construct: purchased Upstate Biotechnology

[10] = target: T10, Jnk1 (Homo sapiens, UniProt P45983); test: AlphaScreen kinase assay, Jnk1; conditions: read-out: IC50, activity toward kinase Jnk1
T10 construct: purchased Upstate Biotechnology

[11] = target: T11, FGFR1 (Homo sapiens, UniProt P11362, C488A/C584S); test: AlphaScreen kinase assay, FGFR1; conditions: read-out: IC50, activity toward kinase FGFR
T11 construct: P1351.pET N6 BI-PTP FGFR A458-E765-X C488A, C584S; made in house; host or cells: E. coli (PTP1B co-expressed)
T11 sequence (P11362 458-765 C488A/C584S): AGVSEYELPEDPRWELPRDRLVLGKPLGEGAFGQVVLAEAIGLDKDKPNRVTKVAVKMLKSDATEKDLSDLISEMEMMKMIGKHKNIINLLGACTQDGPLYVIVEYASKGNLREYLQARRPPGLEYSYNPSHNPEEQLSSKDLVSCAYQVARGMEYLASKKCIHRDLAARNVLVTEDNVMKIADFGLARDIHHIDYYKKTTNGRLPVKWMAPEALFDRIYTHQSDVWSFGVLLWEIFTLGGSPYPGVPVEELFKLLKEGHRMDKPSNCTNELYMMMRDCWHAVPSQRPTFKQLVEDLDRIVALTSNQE

[12] = target: T12, c-Raf-1 (Homo sapiens, UniProt P04049); test: AlphaScreen kinase assay, c-Raf-1; conditions: read-out: IC50, activity toward kinase c-Raf-1
T12 construct: purchased Upstate Biotechnology

[13] = target: T13, Flt1 (Homo sapiens, UniProt P17948); test: AlphaScreen kinase assay, Flt1; conditions: read-out: IC50, activity toward kinase Flt1
T13 construct: P1826.pETN6 BI-PTP FLT1 M799-D1165-X WT; His6 (N); made in house; host or cells: E. coli (PTP1B co-expressed)
T13 sequence (P17948 with tags, fused parts or gaps): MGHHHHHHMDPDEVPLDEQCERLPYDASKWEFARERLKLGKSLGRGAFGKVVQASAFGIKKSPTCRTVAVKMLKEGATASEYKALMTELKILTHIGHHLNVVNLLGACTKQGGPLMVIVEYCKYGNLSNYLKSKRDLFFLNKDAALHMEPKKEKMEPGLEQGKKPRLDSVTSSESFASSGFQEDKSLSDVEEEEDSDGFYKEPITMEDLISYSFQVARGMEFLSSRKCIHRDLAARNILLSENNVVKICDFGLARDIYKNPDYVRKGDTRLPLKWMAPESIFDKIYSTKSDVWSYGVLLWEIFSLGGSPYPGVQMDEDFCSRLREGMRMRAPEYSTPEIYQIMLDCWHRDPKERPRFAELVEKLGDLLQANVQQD

[14] = target: T14, Jnk2 (Homo sapiens, UniProt P45984); test: AlphaScreen kinase assay, Jnk2; conditions: read-out: IC50, activity toward kinase Jnk2
T14 construct: purchased Roche Protein Expression Group (Indianapolis, IN)
Method in brief: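 Compounds in DMSO (20 mM stock) were diluted 1:3 across 8 points. Each kinase phosphorylated a biotin-labelled peptide. Signal generated when donor and acceptor beads came close via antibody binding of phosphorylated substrate.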

[15] = target: T15, Fak (Homo sapiens, UniProt Q05397); test: AlphaScreen kinase assay, Fak; conditions: read-out: IC50, activity toward kinase Fak
T15 construct: P1358.pFastBacHtb FAK S411-Q686-X; His6 with pFastBacHTb leader (TEV site) (N); made in house; host or cells: Sf9 (baculovirus)
T15 sequence (Q05397 411-686): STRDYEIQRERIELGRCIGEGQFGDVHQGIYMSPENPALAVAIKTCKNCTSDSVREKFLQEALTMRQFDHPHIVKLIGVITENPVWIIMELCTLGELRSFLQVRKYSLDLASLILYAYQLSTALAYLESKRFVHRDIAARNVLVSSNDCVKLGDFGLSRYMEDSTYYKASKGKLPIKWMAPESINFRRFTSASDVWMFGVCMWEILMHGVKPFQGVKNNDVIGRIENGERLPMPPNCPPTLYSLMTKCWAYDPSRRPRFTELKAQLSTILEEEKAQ

[16] = target: T16, Jnk3 (Homo sapiens, UniProt P53779); test: AlphaScreen kinase assay, Jnk3; conditions: read-out: IC50, activity toward kinase Jnk3
T16 construct: purchased Upstate Biotechnology

[17] = target: T17, Kit (Homo sapiens, UniProt P10721); test: AlphaScreen kinase assay, Kit; conditions: read-out: IC50, activity toward kinase Kit
T17 construct: P1332.N6 BI PTP KIT M552-K948-X COD; His6 (N); made in house; host or cells: E. coli (PTP1B co-expressed)
Source text: AlphaScreen assay was used to screen additional kinases. The assay is similarly dependent on the phosphorylation of a peptide substrate. In this assay, an antibody that recognizes phosphorylated substrate is bound to an acceptor bead. The peptide substrate is attached to biotin, which binds to a donor head that contains streptavidin. Thus phosphorylated substrate is bound by antibody and streptavidin, bringing the donor and acceptor heads into close proximity when kinase is not inhibited. The donor produces singlet oxygen which results in emission from the acceptor when they are in close proximity. Conversely, when kinase is inhibited, the donor and acceptor beads are not associated and the emission from the acceptor is reduced.
AlphaScreen assays were done using compounds dissolved in DMSO to a concentration of 20 mM. The compounds were diluted accordingly to the desired final concentrations in each sample well, using 1:3 serial dilution for a total of 8 concentration points. Plates were prepared such that each kinase reaction is 20 μl in 1× kinase buffer, 5% DMSO and 10 μM ATP. After incubation of the kinase reaction for 1 hour at room temperature, 5 μl of donor beads in stop buffer (50 mM EDTA in 1× kinase buffer) was added, the sample was mixed and incubated for 20 minutes at room temperature before adding 5 μl of acceptor beads in stop buffer. The samples were incubated for 60 minutes at room temperature and the signal per well was read on AlphaQuest reader.

Measured: IC50

T1 sequence (P07947 whole entry): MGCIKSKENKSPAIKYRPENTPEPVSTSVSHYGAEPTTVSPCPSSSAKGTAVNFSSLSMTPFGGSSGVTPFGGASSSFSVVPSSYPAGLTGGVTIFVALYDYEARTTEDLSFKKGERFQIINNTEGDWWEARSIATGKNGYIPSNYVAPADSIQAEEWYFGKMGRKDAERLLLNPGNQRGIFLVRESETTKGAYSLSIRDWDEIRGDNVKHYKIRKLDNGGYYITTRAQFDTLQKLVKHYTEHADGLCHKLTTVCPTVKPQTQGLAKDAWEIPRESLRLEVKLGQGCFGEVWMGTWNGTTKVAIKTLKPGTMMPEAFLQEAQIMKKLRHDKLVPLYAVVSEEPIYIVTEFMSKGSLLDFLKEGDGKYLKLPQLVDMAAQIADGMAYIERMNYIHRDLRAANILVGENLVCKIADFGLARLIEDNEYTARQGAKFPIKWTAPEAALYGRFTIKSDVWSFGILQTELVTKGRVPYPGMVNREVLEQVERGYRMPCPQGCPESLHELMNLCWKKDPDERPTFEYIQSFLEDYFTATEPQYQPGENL

O=C(c1cccc(O)c1)c1c[nH]c2ncc(-c3ccccc3)cc12 [Compound P-0230]
≤ 10 µM: [1] | [2]

O=C(c1ccc(NCc2cccc(F)c2)nc1)c1c[nH]c2ncccc12 [Compound P-0327]
≤ 10 µM: [1] | [3]

COC(=O)Nc1ccc(F)c(C(O)c2c[nH]c3ncc(-c4cccnc4)cc23)c1F (centres unmarked) [Compound P-0065, {2,4-difluoro-3-[hydroxy-(5-pyridin-3-yl-1H-pyrrolo[2,3b]pyridin-3-yl)-methyl]-phenyl}-carbamic acid methyl ester]
≤ 10 µM: [1] | [4] | [5] | [6] | [2]

O=C(c1ccc(NCc2cccs2)nc1)c1c[nH]c2ncccc12 [Compound P-0237]
≤ 10 µM: [7] | [1] | [3] | [5] | [8]

COc1cccc(C(O)c2c[nH]c3ncc(-c4cccs4)cc23)c1 (centres unmarked) [Compound P-0161]
≤ 10 µM: [1] | [2]

COc1ccc(-c2cnc3[nH]cc(C#Cc4ccccc4)c3c2)cc1OC [Compound P-0153]
≤ 10 µM: [1] | [5] | [8]

COC(=O)Nc1ccc(F)c(C(=O)c2c[nH]c3ncc(-c4cccnc4)cc23)c1F [Compound P-0486, [2,4-Difluoro-3-(5-pyridin-3-yl-1H-pyrrolo[2,3-b]pyridine-3-carbonyl)-phenyl]-carbamic acid methyl ester]
not listed: [1] | [2] | [5] | [7] | [16] | [17]
≤ 10 µM: all other assays above

COc1cccc(-c2ccc3c(CNS(=O)(=O)c4ccc(C)cc4)c[nH]c3n2)c1 [Compound P-0209]
≤ 10 µM: [7] | [1] | [15]

CS(=O)(=O)Nc1ccc(F)c(C(=O)c2c[nH]c3ncc(Br)cc23)c1F [Compound P-0162, N-[3-(5-Bromo-1H-pyrrolo[2,3-b]pyridine-3-carbonyl)-2,4-difluoro-phenyl]-methanesulfonamide]
≤ 10 µM: [1] | [4] | [5] | [12] | [8] | [2]

O=C(c1ccc(NCc2ccccc2)nc1)c1c[nH]c2ncccc12 [Compound P-0483]
≤ 10 µM: [7] | [1] | [3] | [16] | [11] | [8] | [13]

COc1ccc(F)c(C(=O)c2c[nH]c3nccc(Cl)c23)c1 [Compound P-0175]
≤ 10 µM: [1] | [3] | [17] | [11] | [6] | [8] | [2]

CC(=O)Oc1cccc(C(=O)c2c[nH]c3ncc(Br)cc23)c1C [Compound P-0271]
≤ 10 µM: [1] | [4] | [11] | [8]

c1csc(CNc2ccc(Cc3c[nH]c4ncccc34)cn2)c1 [Compound P-0129]
≤ 10 µM: [1] | [3] | [11] | [5] | [8] | [2]

C(=C\c1c[nH]c2ncccc12)/c1ccc(NCc2ccccc2)cc1 [Compound P-0283]
≤ 10 µM: [1] | [5]
